Where two headings read alike, the source gives them in different places.
Tests used:
[1] = test system: RPMI-8226 cells; test: Anti-proliferative activity, RPMI-8226 cells; assay type: cell-based
[2] = test system: Hela cell; test: Anti-proliferative activity, Hela cells; assay type: cell-based; details: Hela cells, read-out: Anti-proliferative activity EC50, Hela
[3] = molecular target: T1, ENL YEATS-H3K27ac interaction (Homo sapiens, UniProt Q03111); test: ALPHA assay, inhibition of ENL YEATS-H3K27ac interaction; details: read-out: IC50, inhibition of ENL YEATS-H3K27ac interaction
T1 sequence (Q03111 1-138 limits assumed): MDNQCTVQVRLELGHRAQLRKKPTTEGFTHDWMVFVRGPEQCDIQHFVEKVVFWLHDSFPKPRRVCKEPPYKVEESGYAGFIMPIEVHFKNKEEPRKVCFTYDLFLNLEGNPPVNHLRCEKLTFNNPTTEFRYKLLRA

[4] = test system: MV4;11 cells; details: footnote b: reported in Li, et al. J Hematol Oncol, 2022, read-out: Anti-proliferative activity EC50, MV4; cited from earlier work
[5] = test system: Molm-13 cells; details: Molm13 cells, footnote b: reported in Li, et al. J Hematol Oncol, 2022; read-out: Anti-proliferative activity EC50, Molm13; cited from earlier work
[6] = molecular target: T2, ENL (Homo sapiens, UniProt Q03111); test: ENL degradation in MV4;11 cells (Western blot); assay type: cell-based; details: for DC50: read-out: DC50 (concentration at which a protein is reduced by 50%), ENL
T2 construct: tested whether the compounds degrade ENL and AF9 in MV4;11 leukemia cells; endogenous in cells; host or cells: MV4;11; Molm-13
T2 sequence (Q03111 1-559): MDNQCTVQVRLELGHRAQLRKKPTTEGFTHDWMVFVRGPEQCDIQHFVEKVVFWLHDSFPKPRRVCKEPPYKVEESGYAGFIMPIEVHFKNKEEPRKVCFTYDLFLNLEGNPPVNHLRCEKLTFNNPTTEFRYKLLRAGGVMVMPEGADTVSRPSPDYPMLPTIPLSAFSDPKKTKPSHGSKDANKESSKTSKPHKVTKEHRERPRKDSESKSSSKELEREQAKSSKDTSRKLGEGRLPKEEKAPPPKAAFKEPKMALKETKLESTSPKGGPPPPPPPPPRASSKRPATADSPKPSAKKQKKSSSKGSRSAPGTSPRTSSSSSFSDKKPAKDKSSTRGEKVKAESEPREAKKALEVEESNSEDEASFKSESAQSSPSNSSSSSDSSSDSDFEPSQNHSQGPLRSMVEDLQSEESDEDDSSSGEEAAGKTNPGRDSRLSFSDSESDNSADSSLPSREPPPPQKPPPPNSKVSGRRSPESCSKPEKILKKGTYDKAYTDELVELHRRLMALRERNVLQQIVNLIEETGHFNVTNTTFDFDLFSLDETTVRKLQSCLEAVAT
Description: Next, Applicant tested whether the compounds degrade ENL and AF9 in MV4;11 leukemia cells with the .MLL1-AF4 oncogene. Upon compound treatment for 24 h, the cells were washed, lysed, and the lysates subjected to SDS-PAGE (sodium dodecyl sulphate-polyacrylamide gel electrophoresis) followed by detection with Western blot.

[7] = test system: Molm-13 cells; test: Anti-proliferative activity, Molm-13 cells; assay type: cell-based
[8] = test system: MV4;11 cells; test: Anti-proliferative activity, MV4;11 cells; assay type: cell-based
[9] = test system: RPMI-8226 cells; details: footnote b: reported in Li, et al. J Hematol Oncol, 2022, read-out: Anti-proliferative activity EC50, RPMI-8226; cited from earlier work
[10] = molecular target: T2, ENL; test: Nuclear and cytoplasmic ENL levels in MV4;11 cells, 4 days (Western blot); assay type: cell-based
Excerpt: Upon treatment of MV4;11 cells with these compounds for 4 days, cytoplasmic and nuclear proteins were separated and subjected to SDS-PAGE/Western blot.

[11] = test system: Hela cell; details: Hela cells, footnote b: reported in Li, et al. J Hematol Oncol, 2022, read-out: Anti-proliferative activity EC50, Hela, cited from earlier work
[12] = molecular target: T2, ENL; test: Rescue of compound 1-mediated ENL degradation in MV4;11 cells; assay type: cell-based; details: 2 h pre-treatment then co-treatment with compound 1 (500 nM) for 24 h
[13] = test system: blood and solid tumor cells; test: Anti-proliferative activity, panel of blood and solid tumor cells; assay type: cell-based
[14] = Molm13 cells, read-out: Anti-proliferative activity EC50, Molm13
[15] = MV4, 11 cells, read-out: Anti-proliferative activity EC50, MV4, 11

## C[C@H]1CCCN1Cc1nc2cc(NC(=O)c3ccc4c(cnn4CCCCNc4cccc5c4C(=O)N(C4CCC(=O)NC4=O)C5=O)c3)ccc2[nH]1 (stereo partly drawn) [Compound 3]
[1]
  EC50: 19 ± 3.8 µM
[2]; footnote letter missing
  EC50: > 50 µM
[3]
  IC50: 0.61 µM
[4]
  EC50: 1.2 µM
[5]
  EC50: 2.1 µM
[6]; 24 h treatment
  Dmax (maximal degradation), ENL: 89%
  concentration at which ENL is almost depleted: ~500 nM
  DC50: 0.072 µM

## C[C@H]1CCCN1Cc1nc2cc(NC(=O)c3ccc4c(cnn4CCCCCCCCCCCNc4cccc5c4C(=O)N(C4CCC(=O)NC4=O)C5=O)c3)ccc2[nH]1 (stereo partly drawn) [SYC-2557]
[1]; 6 days incubation
  EC50: 5.5 µM
[7]; [14]
  EC50: 0.82 ± 0.2 µM
[8]; [15]
  EC50: 0.94 ± 0.06 µM
[6]; FIGS. 9A-9E
  ENL reduction: did not reduce ENL

## C[C@H]1CCCN1Cc1nc2cc(NC(=O)c3ccc4c(cnn4CCCCCCCCCNc4cccc5c4C(=O)N(C4CCC(=O)NC4=O)C5=O)c3)ccc2[nH]1 (stereo partly drawn) [SYC-2555]
[1]
  EC50: 7.9 ± 0.07 µM
[7]; [14]
  EC50: 4.5 ± 0.6 µM
[8]; [15]
  EC50: 8.3 ± 0.8 µM
[6]; FIGS. 9A-9E
  ENL reduction: did not reduce ENL

## O=C1CCC(N2C(=O)c3ccccc3C2=O)C(=O)N1 (stereo not drawn) [Thalidomide, thalidomide, reference compound]
[9]
  EC50: > 50 µM
[10]
  ENL level in the nucleus: did not reduce
[7]; Homo sapiens, 168 h, Molm-13 cells, 7-day incubation, read-out: EC50, proliferation
  EC50: > 50 µM
[8]; Homo sapiens, 168 h, MV4;11 cells, 7-day incubation, read-out: EC50, proliferation
  EC50: > 50 µM
[4]
  EC50: > 50 µM
[5]
  EC50: > 50 µM
[11]
  EC50: > 50 µM
[12]
  effect on compound 1-mediated ENL degradation: dose-dependently inhibit compound 1-mediated ENL degradation

## C[C@H]1CCCN1Cc1nc2cc(NC(=O)c3ccc4c(cnn4CCCCCCCNc4cccc5c4C(=O)N(C4CCC(=O)NC4=O)C5=O)c3)ccc2[nH]1 (stereo partly drawn) [SYC-2554]
[1]
  EC50: 6.4 ± 0.65 µM
[7]; [14]
  EC50: 4.4 ± 0.5 µM
[8]; [15]
  EC50: 3.7 ± 1.6 µM

## CC(C)C[C@H](NC(=O)[C@H](Cc1ccccc1)NC(=O)c1cnccn1)B(O)O [bortezomib]
[12]
  effect on compound 1-mediated ENL degradation: dose-dependently inhibit compound 1-mediated ENL degradation

## C[C@H]1CCCN1Cc1nc2cc(NC(=O)c3ccc4c(cnn4CCCCNC(=O)CC45CC6CC(CC(C6)C4)C5)c3)ccc2[nH]1 [SYC-2523]
[1]; 3 days incubation
  EC50: 1.4 ± 0.5 µM
[7]; [14]
  EC50: 0.98 ± 0.04 µM
[11]; 3 days incubation
  EC50: 3.8 ± 1.2 µM

## C[C@H]1CCCN1Cc1nc2cc(NC(=O)c3ccc4c(cnn4CCCCCNc4cccc5c4C(=O)N(C4CCC(=O)NC4=O)C5=O)c3)ccc2[nH]1 (stereo partly drawn) [SYC-2553]
[1]
  EC50: 7.2 ± 0.35 µM
[7]; [14]
  EC50: 3.4 ± 0.4 µM
[8]; [15]
  EC50: 8.3 ± 1.6 µM
[6]; 24 h treatment
  DC50: 0.0042 µM

## C[C@H]1CCCN1Cc1nc2cc(NC(=O)c3ccc4c(cnn4CCCCCCNC(=O)CC45CC6CC(CC(C6)C4)C5)c3)ccc2[nH]1 [SYC-2522]
[1]
  EC50: 0.68 ± 0.2 µM
[2]; 3 days incubation
  EC50: 3.2 ± 0.7 µM
[7]; [14]
  EC50: 1 ± 0.05 µM

## C[C@H]1CCCN1Cc1nc2cc(NC(=O)c3ccc4c(cnn4CCCNc4cccc5c4C(=O)N(C4CCC(=O)NC4=O)C5=O)c3)ccc2[nH]1 (stereo partly drawn) [SYC-2552]
[7]; [14]
  EC50: 2.5 ± 1.1 µM
[6]; 24 h treatment
  DC50: 0.021 µM

## C[C@H]1CCCN1Cc1nc2cc(NC(=O)c3ccc4c(cnn4CCCCCCNc4cccc5c4C(=O)N(C4CCC(=O)NC4=O)C5=O)c3)ccc2[nH]1 (stereo partly drawn) [Compound 2]
[1]
  EC50: 6 ± 0.91 µM
[3]
  IC50: 0.1 µM
[4]
  EC50: 1.6 µM
[5]
  EC50: 0.49 µM
[11]
  EC50: > 50 µM
[6]; 24 h treatment
  Dmax (maximal degradation), ENL: ~68%
  DC50: ~0.05 µM

## C[C@H]1CCCN1Cc1nc2cc(NC(=O)c3ccc4c(cnn4CCCCNC(=O)CC45CC6CC(CC(C6)C4)C5)c3)ccc2[nH]1 [Compound 4]
[13]
  time to non-selective killing of cancerous cells: ≤ 3 days
[13]; blood and solid tumor cells, range over cell lines, read-out: EC50, proliferation
  EC50: 1 to 3.8 µM
[6]; 24 h, even at 5 μM
  ENL reduction: did not reduce ENL

## C[C@H]1CCCN1Cc1nc2cc(NC(=O)c3ccc4c(cnn4C)c3)ccc2[nH]1 [SGC-iMLLT, reference compound]
[9]
  EC50: > 50 µM
[7]; Molm-13 cells
  activity against proliferation: weak activity
[4]
  EC50: > 50 µM
[5]
  EC50: 17 µM
[11]
  EC50: > 50 µM

## C[C@H]1CCCN1Cc1nc2cc(NC(=O)c3ccc4c(cnn4CCCNC(=O)CC45CC6CC(CC(C6)C4)C5)c3)ccc2[nH]1 [SYC-2558]
[2]; 3 days incubation
  EC50: 2.5 ± 1 µM

## C[C@H]1CCCN1Cc1nc2cc(NC(=O)c3ccc4c(cnn4CCCCCCCCCCNc4cccc5c4C(=O)N(C4CCC(=O)NC4=O)C5=O)c3)ccc2[nH]1 (stereo partly drawn) [SYC-2556]
[1]
  EC50: 7.5 ± 0.19 µM
[7]; [14]
  EC50: 1.1 ± 0.3 µM
[8]; [15]
  EC50: 8.4 ± 1.2 µM
[6]; FIGS. 9A-9E
  ENL reduction: did not reduce ENL

## C[C@H]1CCCN1Cc1nc2cc(NC(=O)c3ccc4c(cnn4CCCCCCCCNC(=O)CC45CC6CC(CC(C6)C4)C5)c3)ccc2[nH]1 [SYC-2521]
[1]
  EC50: 2 ± 0.3 µM
[2]; 3 days incubation
  EC50: 2.5 ± 1.4 µM
[7]; [14]
  EC50: 1 ± 0.2 µM

Source: patent publication US20250235437A1, “PROTEOLYSIS TARGETING CHIMERA (PROTAC) MOLECULE FOR DEGRADATION OF ENL AND CANCER THERAPY” (Baylor College of Medicine, priority 2022, published 2025)
